The subject of assay [1] is IL-17 secretion in PBMC. Briefly: PBMC IL-17 secretion ELISA. Type of assay: cell-based. The following applies: anti-CD3/anti-CD28/IL-23 stimulated human PBMC, mean ± SEM, read-out: hPBMC IL-17 ELISA. As for the experimental part:
Following the incubation period the plates are spun at 200×g for five minutes. Supernatants are diluted 1:1 with equal volume 1% BSA/PBS and tested for IL-17 with a human IL-17 ELISA kit from R&D system (catalog #D317E) according to the protocol provided with the kit with one exception—the colorimetric substrate OPD (o-phenylenediamine dihydrochloride, Sigma Cat #P6912) is used instead of the substrate supplied in the kit. Absorbance at 492 nm is measured with the Envision multi-label plate reader. A492 values are converted to concentration of IL-17 based on the IL-17 standard curve as shown below:
pg/mL IL-17=EC50*[[(Top−Bottom)/(A492−Bottom)]−1](1/−Hill). IC50's for inhibition of IL-17 secretion is calculated based on converted values using a standard 4-parameter fit with maximum inhibition determined from the average values of wells with no added stimulants nor compounds and minimum inhibition from the average values of wells with stimulants alone and no added compound.

Assay [2] has as its system GPI induced arthritis in DBA/1 mice. The experiment in a line: Glucose-6-phosphate isomerase (GPI) induced arthritis model. Type of assay: in vivo, mouse. The following applies: male DBA/1 mice, 1000 mg/Kg orally once daily. As for the experimental part:
The GPI induced arthritis model is adapted from K. Iwanami et al Arthritis Rheumatism 58, 754-763, 2008 and D. Schubert et al. J Immunology 172, 4503-4509, 2004. Mice (8-9 week old male DBA/1 mice) (Harlan) are randomly assigned into treatment groups based on body weights collected on the day of immunization (day 0). On the day of immunization (day 0), a 1:1 (v:v) mixture of recombinant human GPI (diluted to 4 mg/mL in PBS, Gibco) and complete Freund's adjuvant (CFA, Sigma) is mixed on a high speed homogenizer (Omni) for 40 minutes in a cold room. A final concentration of 2 mg/mL GPI is achieved in the emulsion. Mice are injected at the base of the tail (2 sites of injection, subcutaneously, 100 μL each site) with the GPI emulsion. Test compounds are dosed orally starting on the same day as immunization (day 0). Starting on day 0, each paw is scored for severity of joint swelling based on a 0 to 3 scoring system (See K. Iwanami et al Arthritis Rheumatism 58, 754-763, 2008. The clinical score represents the total score of all 4 paws (maximum score=12). Clinical scores are assessed on days 0, 2, 4, 7, 8, 9, 10, 11, 12, 14, 16, 18, and 21.
The AUC is calculated by a trapezoid method for clinical score over time from the day of immunization (day 0) to day 21. Test p-values were derived from Student's t-test.

Where two headings read alike, the source gives them in different places.

`CCS(=O)(=O)c1ccc(CNC(=O)c2cc3c(s2)C2(CCN(C(C)c4cnc(C(F)(F)F)nc4)CC2)O[C@H](C)C3)nc1` (single isomer, unassigned; isomer 2) [Example 5, (5R′)—N-{[5-(Ethylsulfonyl)pyridine-2-yl]methyl}-5′-methyl-1-{1-[2-(trifluoromethyl)pyrimidin-5-yl]ethyl}-4′,5′-dihydrospiro[piperidine-4,7′thieno[2,3-C]pyran]-2′-carboxamide isomer 2]: the IC50 in assay [1] (48 hours) is 30.5 ± 29.3 nM. Same read-out and setting: the result for `CCS(=O)(=O)c1ccc(CNC(=O)c2cc3c(s2)C2(CCN(C(C)c4cnc(C(F)(F)F)nc4)CC2)O[C@H](C)C3)nc1` (single isomer, unassigned; isomer 1) [Example 4, (5R′)—N-{[5-(Ethylsulfonyl)pyridine-2-yl]methyl}-5′-methyl-1-{1-[2-(trifluoromethyl)pyrimidin-5-yl]ethyl}-4′,5′-dihydrospiro[piperidine-4,7′thieno[2,3-C]pyran]-2′-carboxamide isomer 1] reads 106 nM.

As for `CCS(=O)(=O)c1ccc(CNC(=O)c2cc3c(s2)C2(CCN(C(C)c4cnc(C(F)(F)F)nc4)CC2)OC(C)C3)nc1` (centres unmarked) [Example 1, N-{[5-(Ethylsulfonyl)pyridine-2-yl]methyl}-5′-methyl-1-{1-[2-(trifluoromethyl)pyrimidin-5-yl]ethyl}-4′,5′-dihydrospiro[piperidine-4,7′thieno[2,3-C]pyran]-2′-carboxamide], in assay [1] (Homo sapiens, PBMC, 48 h), the IC50 is 77.3 nM. On to `CCS(=O)(=O)c1ccc(CNC(=O)c2cc3c(s2)C2(CCN([C@H](C)c4cnc(C(F)(F)F)nc4)CC2)O[C@@H](C)C3)nc1` [Example 3, (5S′)—N-{[5-(Ethylsulfonyl)pyridine-2-yl]methyl}-5′-methyl-1-{(1R)-1-[2-(trifluoromethyl)pyrimidin-5-yl]ethyl}-4′,5′-dihydrospiro[piperidine-4,7′thieno[2,3-C]pyran]-2′-carboxamide], for which the IC50 in assay [1] (Homo sapiens, PBMC, 48 h) amounted to 20 ± 12.6 nM. In assay [2] (compared to the vehicle group), the “severity of paw swelling and mean clinical scores” value is “reduces severity of paw swelling and maintains lower mean clinical scores”. For the same molecule, the “reduction in clinical score AUC” value in assay [2] (day 0 to day 21, compared to the vehicle group) came out at 75%. The “Clinical Score AUC (mean ± SEM)” value in assay [2] (day 0 to day 21, n=8/group) was 22.20 ± 8.68. On to `CCS(=O)(=O)c1ccc(CNC(=O)c2cc3c(s2)C2(CCN([C@@H](C)c4cnc(C(F)(F)F)nc4)CC2)O[C@@H](C)C3)nc1` [Example 2, (5S′)—N-{[5-(Ethylsulfonyl)pyridine-2-yl]methyl}-5′-methyl-1-{(1S)-1-[2-(trifluoromethyl)pyrimidin-5-yl]ethyl}-4′,5′-dihydrospiro[piperidine-4,7′thieno[2,3-C]pyran]-2′-carboxamide], for which, in assay [1] (Homo sapiens, PBMC, 48 h), the IC50 was found to be 33.7 ± 33.1 nM.
